Test results from US20220125051A1, “PRE-HARVEST DESICCATION METHOD” (SYNGENTA CROP PROTECTION AG, priority 2019, published 2022).
Read-outs that look alike come from different tables or passages of the source.

Tests used:
Format in all cases: in vivo
[1] = system: Digitaria sanguinalis (DIGSA); assay: Post-emergence efficacy, Method B; settings: read-out: Control of weed species after post-emergence application, DIGSA
Description: (§1) An “instant formulation”, known as the IF50, containing 50 g/L of the “technical” (i.e. unformulated) active ingredient was prepared by dissolving the active ingredient in a mixture of organic solvents and emulsifier, details of which are provided in the table. This IF50 was then mixed with a small, variable amount of acetone to aid dissolution, before addition of an aqueous solution of 1% v/v ammonium sulphate+1% v/v Empicol ESC70 (Sodium lauryl ether sulphate) adjuvant, as the aqueous diluent, to form an aqueous spray solution which contains a predetermined concentration of the active ingredient (which varies depending on the application rate of the active ingredient to the plants).
(§2) This aqueous spray solution was then sprayed onto the plants, after about 12 days' cultivation. The plants were grown from seeds sown in standard soil, placed in a glasshouse under controlled conditions (at 24/18° C. or 20/16° C., day/night; 16 hours light; 65% humidity). After spray application the plants were then grown on in a glasshouse under the same conditions and watered twice daily. […] the test was evaluated (100=total damage to plant; 0=no damage to plant).
(§3) Ipomoea hederacea (IPOHE), Euphorbia heterophylla (EPHHL), Chenopodium album (CHEAL), Amaranthus retroflexus (AMARE), Lolium perenne (LOLPE), Digitaria sanguinalis (DIGSA), Eleusine indica (ELEIN), Echinochloa crus-galli (ECHCG), Setaria faberi (SETFA)

[2] = system: Setaria faberi (SETFA); assay: Post-emergence efficacy, Method B; settings: read-out: Control of weed species after post-emergence application, SETFA
Description: as §1, §2, §3

[3] = system: Ipomoea hederacea (IPOHE); assay: Post-emergence efficacy, Method B; settings: read-out: Control of weed species after post-emergence application, IPOHE
Description: as §1, §2, §3

[4] = system: Amaranthus retroflexus (AMARE); assay: Post-emergence efficacy, Method B; settings: read-out: Control of weed species after post-emergence application, AMARE
Description: as §1, §2, §3

[5] = system: Echinochloa crus-galli (ECHCG); assay: Post-emergence efficacy, Method B; settings: read-out: Control of weed species after post-emergence application, ECHCG
Description: as §1, §2, §3

[6] = system: Chenopodium album (CHEAL); assay: Post-emergence efficacy, Method B; settings: read-out: Control of weed species after post-emergence application, CHEAL
Description: as §1, §2, §3

[7] = system: Lolium perenne (LOLPE); assay: Post-emergence efficacy, Method B; settings: read-out: Control of weed species after post-emergence application, LOLPE
Description: as §1, §2, §3

[8] = system: Eleusine indica (ELEIN); assay: Post-emergence efficacy, Method B; settings: read-out: Control of weed species after post-emergence application, ELEIN
Description: as §1, §2, §3

[9] = system: Euphorbia heterophylla (EPHHL); assay: Post-emergence efficacy, Method B; settings: read-out: Control of weed species after post-emergence application, EPHHL
Description: as §1, §2, §3

[10] = system: Digitaria sanguinalis (DIGSA); assay: Post-emergence efficacy, Method A; settings: Digitaria sanguinalis, post-emergence, 312 h; Application rate 500 g/Ha; evaluated after 13 days; 100=total damage to plant, 0=no damage to plant; read-out: Control of weed species after post-emergence application, DIGSA
How it was run: (§4)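 Plants grown 14 days in glasshouse (24/16 °C, 14 h light, 65% humidity) were sprayed with compound formulated in IF50. The spray was diluted in 0.25% or 1% Empicol ESC70 plus 1% ammonium sulphate. Damage was scored 13 days later on a 0-100 scale, where 100 is total damage.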

[11] = system: Setaria faberi (SETFA); assay: Post-emergence efficacy, Method A; settings: Setaria faberi, post-emergence, 312 h; Application rate 500 g/Ha; evaluated after 13 days; 100=total damage to plant, 0=no damage to plant; read-out: Control of weed species after post-emergence application, SETFA
How it was run: as §4

[12] = system: Ipomoea hederacea (IPOHE); assay: Post-emergence efficacy, Method A; settings: Ipomoea hederacea, post-emergence, 312 h, Application rate 500 g/Ha; evaluated after 13 days; 100=total damage to plant, 0=no damage to plant; read-out: Control of weed species after post-emergence application, IPOHE
How it was run: as §4

[13] = system: Amaranthus palmeri (AMAPA); assay: Post-emergence efficacy, Method A; settings: Amaranthus palmeri, post-emergence, 312 h, evaluated after 13 days
How it was run: as §4

[14] = system: Echinochloa crus-galli (ECHCG); assay: Post-emergence efficacy, Method A; settings: Echinochloa crus-galli, post-emergence, 312 h; Application rate 500 g/Ha; evaluated after 13 days; 100=total damage to plant, 0=no damage to plant; read-out: Control of weed species after post-emergence application, ECHCG
How it was run: as §4

[15] = system: Chenopodium album (CHEAL); assay: Post-emergence efficacy, Method A; settings: Chenopodium album, post-emergence, 312 h, evaluated after 13 days
How it was run: as §4

[16] = system: Lolium perenne (LOLPE); assay: Post-emergence efficacy, Method A; settings: Lolium perenne, post-emergence, 312 h, Application rate 500 g/Ha; evaluated after 13 days; 100=total damage to plant, 0=no damage to plant; read-out: Control of weed species after post-emergence application, LOLPE
How it was run: as §4

[17] = system: Eleusine indica (ELEIN); assay: Post-emergence efficacy, Method A; settings: Eleusine indica, post-emergence, 312 h, evaluated after 13 days
How it was run: as §4

[18] = system: Euphorbia heterophylla (EPHHL); assay: Post-emergence efficacy, Method A; settings: Euphorbia heterophylla, post-emergence, 312 h, evaluated after 13 days
How it was run: as §4

[19] = Method B, 500 g/Ha, 100=total damage to plant, 0=no damage

O=S(=O)([O-])CC[n+]1ccc(-c2ccncn2)cn1 [Compound A4]
pest or weed control at 500 g/ha [1, 19]: 100%
pest or weed control at 500 g/ha [2, 19]: 40%
pest or weed control at 500 g/ha [3, 19]: 100%
pest or weed control at 500 g/ha [4, 19]: 100%
pest or weed control at 500 g/ha [5, 19]: 70%
pest or weed control at 500 g/ha [6, 19]: 80%
pest or weed control at 500 g/ha [7, 19]: 90%
pest or weed control at 500 g/ha [8, 19]: 80%
pest or weed control at 500 g/ha [9, 19]: 100%
pest or weed control at 500 g/ha [10]: 80%
pest or weed control at 500 g/ha [11]: 60%
pest or weed control at 500 g/ha [12]: 90%
pest or weed control at 500 g/ha ([13]; Application rate 500 g/Ha, 100=total damage to plant, 0=no damage to plant, read-out: Control of weed species after post-emergence application, AMAPA): 100%
pest or weed control at 500 g/ha [14]: 60%
pest or weed control at 500 g/ha ([15]; Application rate 500 g/Ha, 100=total damage to plant, 0=no damage to plant, read-out: Control of weed species after post-emergence application, CHEAL): 80%
pest or weed control at 500 g/ha [16]: 100%
pest or weed control at 500 g/ha ([17]; Application rate 500 g/Ha, 100=total damage to plant, 0=no damage to plant, read-out: Control of weed species after post-emergence application, ELEIN): 100%
pest or weed control at 500 g/ha ([18]; Application rate 500 g/Ha, 100=total damage to plant, 0=no damage to plant, read-out: Control of weed species after post-emergence application, EPHHL): 100%

Nc1ccnc(-c2cc[n+](CCC(=O)O)nc2)n1 [Compound A41]
pest or weed control at 1000 g/ha [1]: 100%
pest or weed control at 1000 g/ha [2]: 100%
pest or weed control at 1000 g/ha [3]: 20%
pest or weed control at 1000 g/ha [4]: 100%
pest or weed control at 1000 g/ha [5]: 100%
pest or weed control at 1000 g/ha [6]: 90%
pest or weed control at 1000 g/ha [7]: 60%
pest or weed control at 1000 g/ha [8]: 50%
pest or weed control at 1000 g/ha [9]: 100%

N[C@H](CC[n+]1ccc(-c2ncccn2)cn1)C(=O)O [Compound A207, [(1R)-1-carboxy-3-(4-pyrimidin-2-ylpyridazin-1-ium-1-yl)propyl]ammonium 2,2,2-trifluoroacetate]
pest or weed control at 1000 g/ha [1]: 90%
pest or weed control at 1000 g/ha [2]: 100%
pest or weed control at 1000 g/ha [3]: 100%
pest or weed control at 1000 g/ha [4]: 100%
pest or weed control at 1000 g/ha [5]: 100%
pest or weed control at 1000 g/ha [6]: 90%
pest or weed control at 1000 g/ha [7]: 20%
pest or weed control at 1000 g/ha [8]: 100%
pest or weed control at 1000 g/ha [9]: 70%
pest or weed control at 500 g/ha ([13]; Application Rate 500 g/Ha, Method A, read-out: Control of weed species after post-emergence application, AMAPA (100=total damage to plant; 0=no damage to plant)): 100%
pest or weed control at 500 g/ha ([15]; Application Rate 500 g/Ha, Method A, read-out: Control of weed species after post-emergence application, CHEAL (100=total damage to plant; 0=no damage to plant)): 100%
pest or weed control at 500 g/ha ([17]; Application Rate 500 g/Ha, Method A, read-out: Control of weed species after post-emergence application, ELEIN (100=total damage to plant; 0=no damage to plant)): 100%
pest or weed control at 500 g/ha ([18]; Application Rate 500 g/Ha, Method A, read-out: Control of weed species after post-emergence application, EPHHL (100=total damage to plant; 0=no damage to plant)): 90%

N[C@@H](CCC[n+]1ccc(-c2ncccn2)cn1)C(=O)O [Compound A211, [(1S)-1-carboxy-4-(4-pyrimidin-2-ylpyridazin-1-ium-1-yl)butyl]ammonium dichloride]
pest or weed control at 500 g/ha [1]: 100%
pest or weed control at 500 g/ha [2]: 100%
pest or weed control at 500 g/ha [3]: 100%
pest or weed control at 500 g/ha [4]: 100%
pest or weed control at 500 g/ha [5]: 100%
pest or weed control at 500 g/ha [6]: 90%
pest or weed control at 500 g/ha [7]: 10%
pest or weed control at 500 g/ha [8]: 100%
pest or weed control at 500 g/ha [9]: 80%

O=S(=O)([O-])CC[n+]1ccc(-c2cccnn2)cn1 [Compound A213, 2-(4-pyridazin-1-ium-3-ylpyridazin-1-ium-1-yl)ethanesulfonate chloride]
pest or weed control at 1000 g/ha [1]: 100%
pest or weed control at 1000 g/ha [2]: 100%
pest or weed control at 1000 g/ha [3]: 80%
pest or weed control at 1000 g/ha [4]: 100%
pest or weed control at 1000 g/ha [5]: 100%
pest or weed control at 1000 g/ha [6]: 80%
pest or weed control at 1000 g/ha [7]: 90%
pest or weed control at 1000 g/ha [8]: 100%
pest or weed control at 1000 g/ha [9]: 100%
